What was measured:
[1] = system: IGROV1; assay: NCI-60 one-dose screen; format: cell-based; details: Homo sapiens, IGROV-1; IGROV1, Ovarian Cancer panel; single dose 10^−5 M; read-out: Growth inhibition %
[2] = system: HS 578T; assay: NCI-60 one-dose screen; format: cell-based; details: Homo sapiens, Breast Cancer panel, single dose 10^−5 M, read-out: Growth inhibition %
[3] = system: NCI/ADR-RES; assay: NCI-60 one-dose screen; format: cell-based; details: Homo sapiens, Ovarian Cancer panel, single dose 10^−5 M, read-out: Growth inhibition %
[4] = system: PC-3; assay: NCI-60 one-dose screen; format: cell-based; details: Homo sapiens; PC-3, Prostate Cancer panel; single dose 10^−5 M; read-out: Growth inhibition %
[5] = system: UACC-62; assay: NCI-60 one-dose screen; format: cell-based; details: Homo sapiens; UACC-62, Melanoma panel; single dose 10^−5 M; read-out: Growth inhibition %
[6] = system: CAKI-1; assay: NCI-60 one-dose screen; format: cell-based; details: Homo sapiens; CAKI-1, Renal Cancer panel; single dose 10^−5 M; read-out: Growth inhibition %
[7] = system: NCI-H322M; assay: NCI-60 one-dose screen; format: cell-based; details: Homo sapiens, Non-small cell lung panel, single dose 10^−5 M, read-out: Growth inhibition %
[8] = system: SF-295; assay: NCI-60 one-dose screen; format: cell-based; details: Homo sapiens; SF-295, CNS Cancer panel; single dose 10^−5 M; read-out: Growth inhibition %
[9] = system: DU-145; assay: NCI-60 one-dose screen; format: cell-based; details: Homo sapiens; DU-145, Prostate Cancer panel; single dose 10^−5 M; read-out: Growth inhibition %
[10] = system: HT29; assay: NCI-60 one-dose screen; format: cell-based; details: Homo sapiens, HT-29; HT29, Colon Cancer panel; single dose 10^−5 M; read-out: Growth inhibition %
[11] = system: SNB-19; assay: NCI-60 one-dose screen; format: cell-based; details: Homo sapiens; SNB-19, CNS Cancer panel; single dose 10^−5 M; read-out: Growth inhibition %
[12] = system: SR; assay: NCI-60 one-dose screen; format: cell-based; details: Homo sapiens, Leukemia panel, single dose 10^−5 M, read-out: Growth inhibition %
[13] = system: MDA-MB-435; assay: NCI-60 one-dose screen; format: cell-based; details: Homo sapiens; MDA-MB-435, Melanoma panel; single dose 10^−5 M; read-out: Growth inhibition %
[14] = system: RPMI-8226; assay: NCI-60 one-dose screen; format: cell-based; details: Homo sapiens; RPMI-8226, Leukemia panel; single dose 10^−5 M; read-out: Growth inhibition %
[15] = system: MCF7; assay: NCI-60 one-dose screen; format: cell-based; details: Homo sapiens; MCF7, Breast Cancer panel; single dose 10^−5 M; read-out: Growth inhibition %
[16] = system: MDA-MB-468; assay: NCI-60 one-dose screen; format: cell-based; details: Homo sapiens; MDA-MB-468, Breast Cancer panel; single dose 10^−5 M; read-out: Growth inhibition %
[17] = system: OVCAR-5; assay: NCI-60 one-dose screen; format: cell-based; details: Homo sapiens; OVCAR-5, Ovarian Cancer panel; single dose 10^−5 M; read-out: Growth inhibition %
[18] = system: SK-MEL-28; assay: NCI-60 one-dose screen; format: cell-based; details: Homo sapiens; SK-MEL-28, Melanoma panel; single dose 10^−5 M; read-out: Growth inhibition %
[19] = system: TK-10; assay: NCI-60 one-dose screen; format: cell-based; details: Homo sapiens; TK-10, Renal Cancer panel; single dose 10^−5 M; read-out: Growth inhibition %
[20] = system: 786-0; assay: NCI-60 one-dose screen; format: cell-based; details: Homo sapiens; 786-0, Renal Cancer panel; single dose 10^−5 M; read-out: Growth inhibition %
[21] = system: SK-MEL-2; assay: NCI-60 one-dose screen; format: cell-based; details: Homo sapiens; SK-MEL-2, Melanoma panel; single dose 10^−5 M; read-out: Growth inhibition %
[22] = system: KM12; assay: NCI-60 one-dose screen; format: cell-based; details: Homo sapiens; KM12, Colon Cancer panel; single dose 10^−5 M; read-out: Growth inhibition %
[23] = system: HCT-15; assay: NCI-60 one-dose screen; format: cell-based; details: Homo sapiens; HCT-15, Colon Cancer panel; single dose 10^−5 M; read-out: Growth inhibition %
[24] = system: OVCAR-3; assay: NCI-60 one-dose screen; format: cell-based; details: Homo sapiens; OVCAR-3, Ovarian Cancer panel; single dose 10^−5 M; read-out: Growth inhibition %
[25] = system: HL-60(TB); assay: NCI-60 one-dose screen; format: cell-based; details: Homo sapiens, Leukemia panel, single dose 10^−5 M, read-out: Growth inhibition %
[26] = system: T-47D; assay: NCI-60 one-dose screen; format: cell-based; details: Homo sapiens, T47D, Breast Cancer panel, single dose 10^−5 M, read-out: Growth inhibition %
[27] = system: CCD-966SK; assay: MTT cell proliferation assay, CCD-966SK; details: CCD966SK skin fibroblast, 72 h MTT
[28] = system: CCRF-CEM; assay: NCI-60 one-dose screen; format: cell-based; details: Homo sapiens, Leukemia panel, single dose 10^−5 M, read-out: Growth inhibition %
[29] = system: SF-268; assay: NCI-60 one-dose screen; format: cell-based; details: Homo sapiens; SF-268, CNS Cancer panel; single dose 10^−5 M; read-out: Growth inhibition %
[30] = system: LOX IMVI; assay: NCI-60 one-dose screen; format: cell-based; details: Homo sapiens, Melanoma panel, single dose 10^−5 M, read-out: Growth inhibition %
[31] = system: HCT-116; assay: MTT cell proliferation assay, HCT-116; details: for % Inhibition at 10 µM: 72 h MTT, means ± SD; for IC50: read-out: IC50 μM, 72 h MTT, means ± SD, three experiments

SMILES	inhibition at 10 µM [1]	inhibition at 10 µM [2]	inhibition at 10 µM [3]	inhibition at 10 µM [4]	inhibition at 10 µM [5]	inhibition at 10 µM [6]	inhibition at 10 µM [7]	inhibition at 10 µM [8]	inhibition at 10 µM [9]	inhibition at 10 µM [10]	inhibition at 10 µM [11]	inhibition at 10 µM [12]	inhibition at 10 µM [13]	inhibition at 10 µM [14]	inhibition at 10 µM [15]	inhibition at 10 µM [16]	inhibition at 10 µM [17]	inhibition at 10 µM [18]	inhibition at 10 µM [19]	inhibition at 10 µM [20]	other results
COc1ccc2nc3ccccc3c(NCc3ccc(Cl)cc3)c2c1 [Compound 29, (4-Chlorobenzyl)-(2-methoxyacridin-9-yl)-amine]	83.7%	64%	77.1%	80.5%	35.2%	78.6%	75.4%	74.2%	78.5%	102%	73.6%	130%	75.9%	145%	156%	131%	73.5%	92.9%	47.1%	177%	inhibition at 10 µM [21]: 28.7%; inhibition at 10 µM [22]: 59.9%; inhibition at 10 µM [23]: 95%; inhibition at 10 µM [24]: 49%; inhibition at 10 µM [25]: 164%; inhibition at 10 µM [26]: 50.7%; % Inhibition at 10 µM [27]: 2.90 ± 2.51%; inhibition at 10 µM [28]: 91.6%; inhibition at 10 µM [29]: 46.5%; inhibition at 10 µM [30]: 186%; % Inhibition at 10 µM [31]: 28.83 ± 2.64%
Cc1ccc2nc3ccccc3c(NCc3ccccc3)c2c1 [Compound 30, Benzyl-(2-methylacridin-9-yl)-amine]	84.2%	30.2%	70.2%	70.3%	43.6%	64.5%	59.1%	72%	64.2%	88.4%	68.2%	95.9%	41.8%	93.2%	88.8%	111%	59.6%	22%	24.7%	65.7%	inhibition at 10 µM [21]: 0.04%; inhibition at 10 µM [22]: 43.7%; inhibition at 10 µM [23]: 82%; inhibition at 10 µM [24]: 34%; inhibition at 10 µM [25]: 59.4%; inhibition at 10 µM [26]: 36.4%; % Inhibition at 10 µM [27]: 47.93 ± 1.06%; inhibition at 10 µM [28]: 65.1%; inhibition at 10 µM [29]: 31%; inhibition at 10 µM [30]: 90.9%; % Inhibition at 10 µM [31]: 68.46 ± 1.55%; IC50 [31]: 5.78 ± 0.11 µM
c1coc(CNc2c3ccccc3nc3ccccc23)c1 [Compound 14, Acridin-9-yl-furan-2-ylmethyl-amine]	38.1%	16%	55.2%	33%	33.9%	59%	35%	46.1%	24%	64.9%	37.2%	66%	12.4%	43.4%	78.7%	70.7%	23.6%	2.28%	11.6%	34.3%	inhibition at 10 µM [21]: -1.22%; inhibition at 10 µM [22]: 14.5%; inhibition at 10 µM [23]: 55.8%; inhibition at 10 µM [24]: 3.11%; inhibition at 10 µM [25]: 6.96%; inhibition at 10 µM [26]: 30.7%; % Inhibition at 10 µM [27]: 33.89 ± 0.85%; inhibition at 10 µM [28]: 42.9%; inhibition at 10 µM [29]: 14.3%; inhibition at 10 µM [30]: 62.9%; % Inhibition at 10 µM [31]: 58.83 ± 1.72%; IC50 [31]: 8.41 ± 0.19 µM
COc1ccc2nc3ccccc3c(NCc3ccc(F)cc3)c2c1 [Compound 28, (4-Fluorobenzyl)-(2-methoxyacridin-9-yl)-amine]	91.8%	73.9%	84.9%	82.9%	60.9%	92.8%	77.4%	85.6%	83.5%	99.8%	82.3%	101%	76.1%	143%	128%	124%	82%	64.7%	62.2%	93.2%	inhibition at 10 µM [21]: 65%; inhibition at 10 µM [22]: 71.3%; inhibition at 10 µM [23]: 95.9%; inhibition at 10 µM [24]: 68.8%; inhibition at 10 µM [25]: 135%; inhibition at 10 µM [26]: 63.5%; % Inhibition at 10 µM [27]: 60.66 ± 2.63%; IC50 ([27]; read-out: IC50 μM): 4.67 ± 0.07 µM; inhibition at 10 µM [28]: 81.7%; inhibition at 10 µM [29]: 65.4%; inhibition at 10 µM [30]: 167%; % Inhibition at 10 µM [31]: 75.53 ± 2.52%; IC50 [31]: 2.51 ± 0.53 µM
